Like-named read-outs stand apart in the source and are kept apart here.
Key:
EP4R [1] = target: T1, EP4R (Homo sapiens, UniProt P35408); test: biochemical; format: binding; conditions: […]
T1 construct: Tango fusion cassette (only 'tango' is printed); expressed in transfected cells; host or cells: HTLA cells (tTA-dependent luciferase reporter, β-arrestin2-TEV fusion)

EP4R [2] = target: T1, EP4R; test: PRESTO-Tango β-arrestin2 recruitment assay; format: cell-based; conditions: for antagonist activity at EP4R: concentration-response
wild-type EP4R = wild-type EP4R (Homo sapiens, UniProt P35408); test: cell-based; conditions: for Ki: calculated using the Cheng Prusoff equation, read-out: Arrestin-BRET Ki*
wild-type EP4R, sequence (P35408 whole entry): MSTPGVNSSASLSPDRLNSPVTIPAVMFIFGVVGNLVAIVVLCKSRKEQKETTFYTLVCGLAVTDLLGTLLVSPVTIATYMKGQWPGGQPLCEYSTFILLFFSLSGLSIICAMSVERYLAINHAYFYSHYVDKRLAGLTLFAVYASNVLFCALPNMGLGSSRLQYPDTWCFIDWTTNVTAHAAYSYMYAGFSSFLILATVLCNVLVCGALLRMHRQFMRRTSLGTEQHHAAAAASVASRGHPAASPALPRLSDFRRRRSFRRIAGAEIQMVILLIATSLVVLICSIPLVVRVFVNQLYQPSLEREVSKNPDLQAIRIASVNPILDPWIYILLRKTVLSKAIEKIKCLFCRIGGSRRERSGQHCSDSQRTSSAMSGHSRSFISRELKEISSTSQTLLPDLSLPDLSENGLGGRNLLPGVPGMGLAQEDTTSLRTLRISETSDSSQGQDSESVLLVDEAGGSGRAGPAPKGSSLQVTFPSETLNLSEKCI

[3] = read-out: % displacement of 3HPGE2 at 10 µM, 10 µM compound vs 10 nM 3H-PGE2
[4] = PRESTO-Tango -logIC50, antagonist mode, EC80 of PGE2
[5] = PRESTO-Tango IC50 (nM), antagonist mode, EC80 of PGE2
[6] = 10 µM compound vs 10 nM 3H-PGE2, read-out: % displacement of 3HPGE2 at 10 µM
[7] = calculated using the Cheng Prusoff equation, read-out: PRESTO-Tango Ki*

T1 sequence (P35408 whole entry, the tested form may be a part): as the sequence (P35408 whole entry) above

SMILES | inhibition at 10 µM (EP4R [1]; [3]) [%] | IC50 (EP4R [2]; [4]) [nM] | IC50 (EP4R [2]; [5]) [nM] | Ki (EP4R [2]; PRESTO-Tango Ki* (nM)) [nM] | antagonist activity at EP4R (EP4R [2]) | inhibition at 10 µM (EP4R [1]; read-out: 3H-PGE2 Displacement by 10 µM of docking hits (Displacment), 10 µM compound, individual replicate values (Figure 1B source data)) [%] | Ki (EP4R [2]; PRESTO-Tango Ki* (nM), calculated using the Cheng Prusoff equation) [nM] | inhibition at 10 µM (EP4R [1]; [6]) [%] | IC50 (wild-type EP4R) [nM] | Ki (wild-type EP4R) [nM] | IC50 (EP4R [2]; PRESTO-Tango -logIC50) [nM] | IC50 (EP4R [2]; PRESTO-Tango IC50 (nM)) [nM] | Ki (EP4R [2]; [7]) [nM] | ligand efficiency (wild-type EP4R) [kcal/mol per “heavy” atom]
CN1C(=O)C(=Cc2cccc(OCC(=O)O)c2)c2cc(Br)cnc21 [Compound 62, CN1C(=O)C(=CC=2C=CC=C(OCC(=O)O)C2)C=3C=C(Br)C=NC13] | 17.2 | 3470 | 3510 | 702 | dose-dependent antagonist activity |  |  |  |  |  |  |  |  | 
O=C(O)CC1CN(C(=O)[C@@H]2C[C@]23CCOc2ccccc23)c2ccccc21 (some centres unmarked) [Compound 65, OC(=O)CC1CN(C(=O)[C@@H]2C[C@@]32CCOC=4C=CC=CC43)C=5C=CC=CC15] | 24 |  | 5160 |  | dose-dependent antagonist activity | 23.4 | 1030 |  |  |  |  |  |  | 
O=C(NC1CCCC(C(=O)O)CC1)c1csc(C2CCCCC2)c1 (centres unmarked) [Compound 66, OC(=O)C1CCCC(CC1)NC(=O)C2=CSC(=C2)C3CCCCC3] |  |  |  |  | dose-dependent antagonist activity |  |  | 25.6 | 4050 | 810 | 3720 | 3760 | 752 | 
O=C(O)Cc1ccc(NC(=O)c2cc(C3CC3)nc3ccc(F)cc23)cc1 [Compound 68, OC(=O)CC=1C=CC(NC(=O)C=2C=C(N=C3C=CC(F)=CC23)C4CC4)=CC1] | 31.8 | 11000 | > 10000 |  | dose-dependent antagonist activity |  |  |  |  |  |  |  |  | 
N#Cc1ccc(OCc2cccc(C(=O)Nc3cccc(-c4nnn[nH]4)c3)c2)cc1 [Compound 70, O=C(NC=1C=CC=C(C1)C2=NN=NN2)C=3C=CC=C(COC=4C=CC(C#N)=CC4)C3] | 56.2 |  |  |  | dose-dependent antagonist activity |  |  |  |  |  | 14500 | > 10000 |  | 
O=C(O)C1CCC2(CC1)CC(Nc1ncnc3sc4c(c13)CCCC4)C2 (centres unmarked) [Compound 71, OC(=O)C1CCC2(CC(C2)NC=3N=CN=C4SC=5CCCCC5C34)CC1] |  |  |  |  | dose-dependent antagonist activity |  |  | 62.9 | 899 | 180 |  | 850 | 170 | 0.35
O=C(O)C1CCC2(CC1)CC(Nc1ncnc3sc4ccccc4c13)C2 (centres unmarked) [Compound 72, OC(=O)C1CCC2(CC(C2)NC=3N=CN=C4SC=5C=CC=CC5C34)CC1] |  |  |  |  |  |  |  |  | 514 | 103 |  | 444 | 89 | 
O=C(O)C1CCC2(CC1)CC(Nc1ncnc3[nH]c4ccccc4c13)C2 (centres unmarked) [Compound 73, OC(=O)C1CCC2(CC(C2)NC=3N=CN=C4NC=5C=CC=CC5C34)CC1] |  |  |  |  |  |  |  |  | 146 | 29 |  | 548 | 110 | 0.40

Source: PMC10700596 (Nature Communications, 2023)
